Measured values as given in patent publication US9884812B2, “Use of DDX3X inhibitors for the treatment of pneumovirus infections” (priority 2014, dated 2018).
Read-outs that look alike come from different tables or passages of the source.

Key:
HEp2 or BSC1 cells = assay: Toxicity to cells in the TCID50 screen (mock control); type: cell-based
Procedure: This method provides a rapid approach to initially screen compounds and was developed as an increased number of compounds were synthesised. […] Virus was then added over 5 different half log dilutions starting at a multiplicity of infection of 0.02 plus mock control. Three dilutions of compound plus a DMSO control were screened per plate. […] Identical plate repeats for each compound dilution were fixed in subsequent days as indicated.

[1] = Solubility in cell medium; type: physicochemical; details: solution of ligand in DMSO (20 mM) diluted in cell media to 100 μM; scale from 'very poor' (almost insoluble) to 'very good' (freely soluble over extended periods at 4° C.)
[2] = cellular RSV TCID50 assay tables

| Structure (SMILES) | Toxicity (HEp2 or BSC1 cells; [2]) | Solubility in cell medium [1] | Toxicity (HEp2 or BSC1 cells) |
| --- | --- | --- | --- |
| CC(=O)c1cccc(NC(=O)Nc2ccccc2C)c1 [Compound 2, 1-(3-acetylphenyl)-3-(2-methylphenyl)urea] | very low | good | – |
| Cc1ccccc1NC(=O)Nc1cccc([S+](C)[O-])c1 (stereo not shown) [Compound 5, 3-(3-methanesulfinylphenyl)-1-(2-methylphenyl)urea] | very low | good | – |
| N#Cc1cccc(NC(=O)Nc2cccnc2)c1 [Compound 7, 3-(3-cyanophenyl)-1-(pyridin-3-yl)urea] | low | moderate | – |
| N#Cc1ccc(NC(=O)Nc2ccccn2)cc1 [Compound 8, 3-(4-cyanophenyl)-1-(pyridin-2-yl)urea] | toxic at 100, 32, 10 μM | moderate | – |
| Cc1ccccc1NC(=O)Nc1ccccn1 [Compound 9, 1-(2-methylphenyl)-3-(pyridin-2-yl)urea] | low | good | – |
| Cc1ccccc1NC(=O)Nc1cccnc1 [Compound 10, 1-(2-methylphenyl)-3-(pyridin-3-yl)urea] | low | moderate | – |
| N#Cc1cccc(NC(=O)Nc2ccccn2)c1 [Compound 11, 3-(3-cyanophenyl)-1-(pyridin-2-yl)urea] | toxic at 100 μM | moderate | – |
| N#Cc1cccc(NC(=O)Nc2ncccn2)c1 [Compound 12, 3-(3-cyanophenyl)-1-(pyrimidin-2-yl)urea] | toxic at 100 μM | poor | – |
| COc1cccc(NC(=O)Nc2ccccc2C)c1 [Compound 13, 3-(3-methoxyphenyl)-1-(2-methylphenyl)urea] | toxic at 100 μM | good | – |
| CSc1ccc(NC(=O)Nc2ccccc2C)cc1 [Compound 14, 3-(2-methylphenyl)-1-[4-(methylsulfanyl)phenyl]urea] | low | good | – |
| COc1ccc(NC(=O)Nc2ccccc2C)cc1 [Compound 15, 1-(4-methoxyphenyl)-3-(2-methylphenyl)urea] | low | good | – |
| Cc1ccccc1NC(=O)Nc1cccc(Br)c1 [Compound 16, 1-(3-bromophenyl)-3-(2-methylphenyl)urea] | toxic at 100 μM | moderate | – |
| Cc1ccccc1NC(=S)Nc1cccc([N+](=O)[O-])c1 [Compound 17, 3-(2-methylphenyl)-1-(3-nitrophenyl)thiourea] | toxic at 100 μM | good | – |
| Cc1ccccc1NC(=S)Nc1cccc(C#N)c1 [Compound 18, 1-(3-cyanophenyl)-3-(2-methylphenyl)thiourea] | low | very good | – |
| CC1CCCCC1NC(=O)Nc1cccc([N+](=O)[O-])c1 (stereo not shown) [Compound 21, 3-(2-methylcyclohexyl)-1-(3-nitrophenyl)urea] | toxic at 100 μM | moderate | – |
| CC1CCCCC1NC(=O)Nc1ccc(C#N)cc1 (stereo not shown) [Compound 22, 1-(4-cyanophenyl)-3-(2-methylcyclohexyl)urea] | low | moderate | – |
| CC1CCCCC1NC(=O)Nc1cccc(C#N)c1 (stereo not shown) [Compound 23, 1-(3-cyanophenyl)-3-(2-methylcyclohexyl)urea] | low | moderate | – |
| CCCCCCCCNC(=O)Nc1ccc(C#N)cc1 [Compound 24, 1-(4-cyanophenyl)-3-octylurea] | low | good | – |
| CCCCCCCCNC(=O)Nc1ccccc1C [Compound 25, 1-(2-methylphenyl)-3-octylurea] | low | moderate | – |
| Cc1ccccc1NC(=O)NCCN(C)C [Compound 26, 3-[2-(dimethylamino)ethyl]1-(2-methylphenyl)urea] | low | good | – |
| Cc1ccccc1NC(=O)N1CCOCC1 [Compound 27, N-(2-methylphenyl)morpholine-4-carboxamide] | low | good | – |
| CCCCCCCCNC(=S)Nc1ccccc1C [Compound 28, 1-(2-methylphenyl)-3-octylthiourea] | low | good | – |
| Cc1ccccc1NC(=S)NCCN(C)C [Compound 29, 3-[2-(dimethylamino)ethyl]-1-(2-methylphenyl)thiourea] | low | good | – |
| Cc1ccccc1NC(=S)N1CCOCC1 [Compound 30, N-(2-methylphenyl)morpholine-4-carbothioamide] | low | very good | – |
| O=C(Nc1cccc(NC(=O)Nc2cccc([N+](=O)[O-])c2)c1)Nc1cccc([N+](=O)[O-])c1 [Compound 31, 1,1′-(1,3-phenylene)bis(3-(3-nitrophenyl)urea)] | – | very poor | toxic at 100 μM |
| CSc1cccc(NC(=O)Nc2cccc(NC(=O)Nc3cccc(SC)c3)c2)c1 [Compound 33, 1,1′-(1,3-phenylene)bis(3-(3-(methylthio)phenyl)urea)] | toxic at 100 μM | poor | – |
| COc1cccc(NC(=O)Nc2cccc(NC(=O)Nc3cccc(OC)c3)c2)c1 [Compound 34, 1,1′-(1,3-phenylene)bis(3-(3-methoxyphenyl)urea)] | toxic at 100 μM | poor | – |
| Cc1ccccc1NC(=O)NCCCOCCOCCOCCCNC(=O)Nc1ccccc1C [Compound 38, 1-(2-methylphenyl)-3-(3-{2-[2-(3-{[(2-methylphenyl)carbamoyl]-amino}propoxy)ethoxy]ethoxy}propyl)urea] | toxic at 50 μM | good | – |
| Cc1ccccc1NC(=O)Nc1ccc(Br)cc1 [Compound 41, 1-(4-bromophenyl)-3-(o-tolyl)urea] | Low | Moderate at 100 μM | – |
